Assay results published in US7514432B2, “Compounds and methods of treating cell proliferative diseases, retinopathies and arthritis” (Exonhit Therapeutics SA, priority 2003, dated 2009).
Where two headings read alike, the source gives them in different places.

Experiments:
HMEC1 = experiment: Cell viability assay (MTT), HMEC1; assay type: cell-based, Human; conditions: MTT, 10% FBS, 6-day treatment, 1% DMSO
Procedure, shortened: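 HMEC1 cells seeded 24 h before dosing, then exposed to 0–200 μM compound (11 concentrations) in medium with 10% FBS and 1% DMSO final, refed every 3 days. Viability read on day 6 by MTT (0.5 mg/ml, 1–5 h at 37 °C), absorbance 550 nm; IC50 from dose-response curves, mean±SEM of 1–8 experiments.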

HCT116 = experiment: Cell viability assay (MTT), HCT116; assay type: cell-based, human; conditions: 1% DMSO
Procedure, shortened: (§1)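 Cells seeded 24 h before treatment with 0–200 μM compound (11 concentrations, 1% DMSO final) in 10% or 0.5% FBS medium; exposure 16 h, 3 or 6 days, fed every 3 days in 6-day runs. MTT 0.5 mg/ml read at 550 nm; IC50 from dose-response curves, mean±SEM.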

MDA-MB-231 = experiment: Cell viability assay (MTT), MDA-MB-231; assay type: cell-based, human; conditions: Homo sapiens, 1% DMSO
Procedure, shortened: as §1

NIH 3T3 = experiment: Cell viability assay (MTT), NIH 3T3; assay type: cell-based, mouse; conditions: Mus musculus, 10% FBS, 1% DMSO
Procedure, shortened: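 MTT viability in medium with 10% FBS and 1% DMSO, with cells seeded 24 h before treatment at 0–200 μM (11 concentrations). There were two formats: 6-day (3–15 10^3 cells, re-fed every 3 days) or 16-hour (5–10 10^4 cells). Absorbance was read at 550 nm, giving IC50 (50% cell death) as mean±SEM.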

HCT116 cells = experiment: Anchorage-independent cell growth assay in soft agar; assay type: cell-based, human; conditions: 7 days; for IC50: Homo sapiens, HCT-116, 168 h, HCT116, 0.3% agar
Description: FIG. 3: Anchorage-independent growth assay in soft agar. 5 10^3 cells were seeded in 24-well plates in 0.3% agar-containing medium supplemented with the designated amount of compounds. After 7 days of incubation at 37° C., pictures of each well were taken and analyzed using the ImageJ image analysis software. In particular, clone size and number were calculated. The data were analyzed using GraphPad Prism, and IC50 was calculated. […] (A) Typical dose-response curves obtained for clone size and number. (B) Bar graph displaying the IC50s calculated for each compound.
In order to evaluate the effect of one compound on the capacity of tumour cells to grow without anchorage, HCT116 cells were seeded in soft agar. In contrast to microplate assays which average the drug's effects over an entire cell population, clonogenic assays offer the possibility of distinguishing cytotoxic agents (i.e., decreased colony number) from cytostatic agents (i.e., decreased colony size without decreased colony number; Murphy M. J. et al., 1996). Briefly, 5 10^3 HCT116 cells were resuspended in 300 μl of complete medium containing 0.3% soft-agar (Difco) and different concentrations of compound (8 concentrations ranging from 0 to 30 μM). Cells were then poured on a solidified layer of medium containing 0.5% of soft agar plus the compound at the same concentration as in the upper layer. Cells were incubated for 7 days at 37° C. before pictures of each well were taken using a phase contrast microscope (Nikon) and a digital camera (Nikon Coolpix 990). Pictures were subsequently analyzed using free image analysis software from the NIH (ImageJ) allowing determination of clone size and number.
Data were analyzed using the GraphPad Prism software, and IC50 (dose leading to a 50% decrease of clone size or number) was calculated from dose-response curves.

MCF7 = experiment: Cell viability assay (MTT), MCF7; assay type: cell-based; conditions: Homo sapiens, MCF7, 72 h, 10% FBS, 3-day treatment, 1% DMSO
Description: Table 12: 6-day cell viability assay (MTT) in the presence of 10% Fetal Bovine Serum and 1% DMSO, in HMEC1, HCT116, MDA-MB-231, MCF7 and NIH3T3 cell lines. 3 10^3 to 15 10^3 cells were seeded in 48-well plates in growth medium containing 10% FBS, with or without various concentrations of test compounds. Cell cultures were fed every 3 days with the appropriate media. Cell viability was determined on day 6. Data were analyzed and IC50s were calculated from dose-response curves using GraphPad Prism. Results summarized in the tables are mean±SEM of 1 to 8 independent experiments.
(§2) Table 14: 3-day cell viability assay (MTT) in the presence of 10% Fetal Bovine Serum and 1% DMSO, in DLD1, HCT116, MDA-MB-231, MCF7 and HeLa cells. 7.5 10^3 to 1.5 10^4 cells were seeded in 48-well plates in growth medium containing 10% FBS, with or without various concentrations of test compounds. Data were analyzed and IC50s were calculated from dose-response curves using GraphPad Prism. Results summarized in the tables are mean±SEM of 1 to 7 independent experiments.
(§3) In order to determine a compound's effect on cell viability, microculture tetrazolium assays (MTT) were performed as described by Carmichael et al. (1996) with modifications. Four human tumoral cell lines, namely HCT116 colon adenocarcinoma, H460 lung carcinoma, MCF-7 and MDA-MB-231 breast carcinoma cell lines, DLD1 colorectal adenocarcinoma, HeLa adenocarcinoma, HepG2 hepatocellular carcinoma. 3 immortalized but non tumorigenic cell lines, namely NIH3T3 mouse fibroblasts (American Type Culture Collection) and primary hepatocytes (Biopredic international), cultured according to their recommendations together with Human Microvasculature Endothelial Cell line HMEC1 (National Center for Infectious Diseases). Briefly, cells were seeded in 48-well plates 24 hours before drug addition. Cells were treated with 0 to 200 μM (11 concentrations) of compound solubilized in DMSO, adjusting the final concentration of DMSO to 1% in the well. 16 hours, and three or six days after treatment, 0.5 mg/ml MTT (Sigma) was added to the medium and cells were incubated for 1-5 hours at 37° C. before solubilization of formazan crystals in 100% DMSO. Absorbance was measured using a spectrophotometer at a wavelength of 550 nm. Data was analyzed using the GraphPad Prism software (GraphPad Software, Inc.), and IC50 (dose leading to 50% cell death) was calculated from the dose-response curves.

DLD1 = experiment: Cell viability assay (MTT), DLD1; assay type: cell-based; conditions: Homo sapiens, DLD-1, 72 h, 10% FBS, 3-day treatment, 1% DMSO
Description: as §2, §3

HeLa = experiment: Cell viability assay (MTT), HeLa; assay type: cell-based; conditions: Homo sapiens, 72 h, 10% FBS, 3-day treatment, 1% DMSO
Description: as §2, §3

HepG2 = experiment: Cell viability assay (MTT), HepG2; assay type: cell-based; conditions: Homo sapiens, 10% FBS, 16-hours treatment, 1% DMSO
Description: (§4) Table 15: 16-hour cell viability assay (MTT) in the presence of 10% Fetal Bovine Serum and 1% DMSO, in HCT116, MDA-MB-231, NIH3T3, HepG2 and primary hepatocytes. 5 10^4 to 10 10^4 cells were seeded in 48-well plates in growth medium containing 10% FBS, with or without various concentrations of test compounds. Data were analyzed and IC50s were calculated from dose-reponse curves using GraphPad Prism. Results summarized in the tables are mean±SEM of 1 to 2 independent experiments.
as §3

Primary Hepatocytes = experiment: Cell viability assay (MTT), primary hepatocytes; assay type: cell-based; conditions: Hepatocyte, 10% FBS, 16-hours treatment, 1% DMSO
Description: as §4, §3

[1] = system: Salmonella typhimurium TA 98 and TA 100 strains; experiment: Screening Ames test; conditions: with and without S9 mix; 10 to 5000 μg per plate
Source text: The objective of this study was to evaluate the potential of the test items to induce reverse mutation in Salmonella Typhimurium (TA 98 and TA 100 strains). The bacterial reverse mutation test is able to identify substances that cause point mutations, by substitution, addition or deletion of one or a few DNA base-pairs. Mutagenic substances can induce reversion in histidine deficient strains which are then able to grow and form colonies in a histidine-limited medium, while non-reverted cannot. This test is performed in the absence and presence of a rat liver metabolising system (S9 mix). Three known mutagens are used to check sensitivity of test system: sodium azide, 2-nitrofluorene and 2-anthramine.
The dose levels per plate were of 10 to 5000 μg. A preliminary toxicity test was performed followed by the mutagenecity test per se.

[2] = Homo sapiens, HCT-116, 144 h, 0.5% FBS, 6-day treatment
[3] = Homo sapiens, HCT-116, 144 h, 10% FBS, 6-day treatment
[4] = MDA-MB-231, 144 h, 0.5% FBS, 6-day treatment, read-out: IC50 (μM), MDA-MB-231
[5] = MDA-MB-231, 144 h, 10% FBS, 6-day treatment, read-out: IC50 μM, MDA-MB-231

Structure (SMILES) | IC50 (HMEC1; Homo sapiens, HMEC-1, 144 h) | IC50 (HCT116; [2]) | IC50 (HCT116; [3]) | IC50 (MDA-MB-231; [4]) | IC50 (MDA-MB-231; [5]) | IC50 (NIH 3T3; NIH3T3, 144 h, 6-day treatment) | IC50 (HCT116 cells) | other results
NC(=O)c1nnn(Cc2cc(Cl)c(C(=O)c3ccc(Cl)cc3)c(Cl)c2)c1N [CAI, carboxyamidotriazole, reference compound] | 28.4 µM | 0.6 µM | 1 µM | 0.4 µM | 1.3 µM | 5.8 µM | 5.8 ± 1 µM | IC50 (HCT116; Homo sapiens, HCT-116, 16 h, 10% FBS, 16-hours treatment): 44.1 µM; IC50 (MDA-MB-231; MDA-MB-231, 16 h, 10% FBS, 16-hours treatment, read-out: IC50 μM, MDA-MB-231): > 50 µM; IC50 (NIH 3T3; NIH3T3, 16 h, 16-hours treatment): 95.9 µM; mode of action: clone size versus clone number (HCT116 cells; soft agar): preferentially affect clone size as compared to clone number
O=c1cc(CN2CCOCC2)occ1OCc1cccc(CSc2ccnc3cc(C(F)(F)F)ccc23)c1 [EHT 2725, 5-((3-((7-(Trifluoromethyl)quinolin-4-ylthio)methyl)phenyl)methoxy)-2-(morpholinomethyl)-4H-pyran-4-one] | 28.1 µM | 5.4 µM | < 4 µM | 6.4 µM | 9.3 µM | 24.8 µM | – | IC50 (HCT116; 10% FBS, 6-day treatment): 2.7 µM; IC50 (HCT116; Homo sapiens, HCT-116, 72 h, 10% FBS, 3-day treatment): 9.9 µM; IC50 (MDA-MB-231; MDA-MB-231, 72 h, 10% FBS, 3-day treatment, read-out: IC50 μM, MDA-MB-231): 19.5 µM; IC50 (MCF7): 7.3 µM; IC50 (DLD1): 12.2 µM; IC50 (HeLa): 20.9 µM; IC50 (HepG2): 45.2 µM; IC50 (Primary Hepatocytes): > 50 µM; mutagenic activity [1]: did not show any mutagenic activity
O=c1cc(COC2CCCCO2)occ1OCCCCCSc1ccnc2cc(C(F)(F)F)ccc12 (stereo not shown) [EHT 9376, 2-(Tetrahydro-pyran-2-yloxymethyl)-5-[5-(7-trifluoromethyl-quinolin-4-ylsulfanyl)-pentyloxy]-4H-pyran-4-one] | < 10 µM | – | – | – | 11.5 µM | 8.1 µM | 5.4 ± 1.2 µM | IC50 (HMEC1): 8.2 µM
